Laboratory results reported in US8685369B2, “Technetium- and rhenium-bis (heteroaryl) complexes, and methods of use thereof” (priority 2004, dated 2014).

Format: physicochemical
Procedure: The stability and robustness of the technetium-di(pyridine) complexes was assessed using challenges with free cysteine and histidine. Specifically, the experiments were performed using [^99mTc(CO)3(dipyridinemethylamine)]^+1.
[^99mTc(CO)3(H2O)3]^+ was heated with [{N,N-di(pyridyl-2-methyl)}N-butyl-phthalimide in 0.5 mL (1 mg/mL) of methanol at 100° C. for 60 minutes. […] The product eluted with methanol at 20.8 minutes. The HPLC analysis was performed using a Supelco C18 column, 25 cm×4.6 mm column (5 μm pore size), equipped with 2 cm guard using solvent A=0.05 M triethylammonium phosphate buffer pH 2.5 and solvent B=methanol. The method employed was a gradient 5-95% B, 1 mL/minute for 30 minutes. The gradient ramped from 5-95 from 3-20 minutes.

- stability in challenges with free cysteine and histidine: stable
- change in the components by HPLC on incubation with cysteine (aqueous solution, cysteine, 18 hours at 37° C. at pH 7.4): no significant change
Substance: [^99mTc(CO)3(dipyridinemethylamine)]^+1
